The series has as its system human skin. The experiment in a line: Safety assessment for human skin: patch test. The format is in vivo. The conditions noted are these: human volunteers. The method, then:
Safety of Compound 2 was assessed by a patch test of 33 human volunteers. At this time, a patch treated with a composition containing 0.0544 mg/ml of compound 2 was attached to the test site, after 24 hours, the patch was removed and the location was marked. After 1 hour, a degree of reactivity was determined and recorded.
The skin reactivity was calculated by multiplying the average of evaluated values for 33 subjects by 25, while the skin irritation index was determined by dividing the above calculated value by the number of evaluations.
The degree of skin irritation of the test substance was determined with reference to the skin irritation index table (Table 1).

The structures appear in SMILES notation.

With `O=C(O)c1cc(NCCc2ccc(C(F)(F)F)cc2)ccc1O` [Compound 2], the “adverse skin reactions during the period of use” value is on record as “no reports of specific adverse skin reactions” and the “findings on physical examination by a dermatologist” value is recorded as “no abnormal findings were observed”.

The values above are taken from patent US20220249343A1, “COSMETIC COMPOSITION INCLUDING 5-BENZYLAMINOSALICYLIC ACID DERIVATIVE, AND TOPICAL USE THEREOF” (GNT PHARMA CO., LTD., priority 2019, published 2022).
